1 molecule from article PMC5133702, “Liver-specific ATP-citrate lyase inhibition by bempedoic acid decreases LDL-C and attenuates atherosclerosis” (Nature Communications, 2016) can be followed below.

Molecules are shown by their SMILES.

The assay addresses T1, ATP-citrate lyase (ACL) (Homo sapiens, UniProt P53396).
T1 construct: gene ACLY; recombinant human ACL
T1 sequence (P53396 1-1101): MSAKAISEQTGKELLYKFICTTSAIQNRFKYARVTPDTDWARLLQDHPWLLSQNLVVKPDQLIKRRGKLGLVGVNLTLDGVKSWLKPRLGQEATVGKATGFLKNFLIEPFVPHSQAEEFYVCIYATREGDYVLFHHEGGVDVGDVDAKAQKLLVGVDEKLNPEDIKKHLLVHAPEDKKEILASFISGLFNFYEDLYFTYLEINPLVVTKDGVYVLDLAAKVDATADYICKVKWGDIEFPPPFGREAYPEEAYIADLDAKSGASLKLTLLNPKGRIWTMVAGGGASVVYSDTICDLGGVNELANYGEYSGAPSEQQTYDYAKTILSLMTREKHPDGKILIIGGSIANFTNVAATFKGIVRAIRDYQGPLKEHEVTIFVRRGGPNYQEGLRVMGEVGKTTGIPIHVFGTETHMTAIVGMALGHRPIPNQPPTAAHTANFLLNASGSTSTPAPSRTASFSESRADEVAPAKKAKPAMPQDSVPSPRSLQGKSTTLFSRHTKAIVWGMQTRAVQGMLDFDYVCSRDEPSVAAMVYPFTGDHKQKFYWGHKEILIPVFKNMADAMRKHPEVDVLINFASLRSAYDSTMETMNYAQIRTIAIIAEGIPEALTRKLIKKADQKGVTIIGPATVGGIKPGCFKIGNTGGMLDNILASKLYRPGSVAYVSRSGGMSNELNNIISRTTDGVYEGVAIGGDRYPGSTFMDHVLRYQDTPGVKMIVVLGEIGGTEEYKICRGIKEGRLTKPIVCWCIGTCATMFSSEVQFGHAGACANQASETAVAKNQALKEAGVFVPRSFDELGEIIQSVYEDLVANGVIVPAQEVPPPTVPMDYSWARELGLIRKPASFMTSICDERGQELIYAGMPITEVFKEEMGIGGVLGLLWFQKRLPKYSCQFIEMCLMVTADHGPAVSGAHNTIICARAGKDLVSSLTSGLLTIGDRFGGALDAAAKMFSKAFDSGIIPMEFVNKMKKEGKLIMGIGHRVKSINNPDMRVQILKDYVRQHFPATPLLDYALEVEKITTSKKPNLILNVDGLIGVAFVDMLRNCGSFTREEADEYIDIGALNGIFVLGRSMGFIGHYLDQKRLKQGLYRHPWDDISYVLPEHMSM
The assay is described as follows: cell-free radiometric assay, […]-citrate to […]-acetyl-CoA, enzyme kinetics. It is filed as biochemical.

Take `CC(C)(CCCCCC(O)CCCCCC(C)(C)C(=O)SCCNC(=O)CCNC(=O)[C@H](O)C(C)(C)COP(=O)(O)OP(=O)(O)OC[C@H]1O[C@@H](n2cnc3c(N)ncnc32)[C@H](O)[C@@H]1OP(=O)(O)O)C(=O)O` (stereo partly shown) [ETC-1002-CoA]: the Ki (in general, the equilibrium dissociation constant of an inhibitor or competing ligand from its target) is 2000 nM.
